In patent US10443081B2, “Methods for the expression of peptides and proteins” (Numaferm GmbH, priority 2013, dated 2019) one finds Kd data, which are given here for 1 compound.

Read-outs that look alike come from different tables or passages of the source.

The test deals with T1, HlyA1-IFABP fusion protein (encoded by pIAR_207, SEQ ID NO: 20; IFABP wt accession NP_037200) (Rattus norvegicus, UniProt P02693).
T1 construct: pIAR_207
In words: Fluorescence spectroscopy titration with DAUDA, refolded HlyA1-IFABP. It is filed as binding. To be noted: 100 nM protein, 20 mM KH2PO4, 0.25 mM EDTA, pH 7.3, excitation 350 nm, emission 500 nm. As to the method:
SEC analyses of refolded HlyA1-IFABP. A and C: SDS-PAGE gel of elution fractions from SEC analysis of HlyA1-IFABP refolded with Ca^2+ and elution chromatogram of the SEC. B and D: SDS-PAGE gel of elution fractions from SEC analysis of HlyA1-IFABP refolded with EDTA and elution chromatogram of the SEC. E: Purified HlyA1-IFABP in the presence of either Ca^2+ or EDTA were incubated with Factor Xa and protein samples were analyzed by SDS-PAGE at indicated time points. The arrow indicates the position of IFABP. F and G: Functional studies of HlyA1-IFABP using titration experiments with DAUDA. F: HlyA1-IFABP was refolded in the presence of Ca^2+ and purified by SEC. DAUDA was titrated to HlyA1-IFABP, the fluorescence signal at 500 nm was recorded and plotted against the DAUDA concentration. […]
11-(Dansylamino)undecanoic acid (DAUDA, Cayman Chemical) was prepared as a 1 mM stock solution in 50% isopropanol and 50% buffer (20 mM KH2PO4, 0.25 mM EDTA, pH 7.3) and further diluted to the appropriate concentrations with buffer. […] The fluorescence signal was recorded at a wavelength of 500 nm after excitation at 350 nm using a Fluorolog®-3 (Horiba) (Kim and Frieden (1998) Protein Sci, 7, 1821-1828). […] Fluorescence signals of DAUDA in buffer in the absence of protein was subtracted as background. The corrected and normalized fluorescence signals were plotted against the DAUDA concentration. […]

T1 sequence (P02693 1-132 with tags or gaps): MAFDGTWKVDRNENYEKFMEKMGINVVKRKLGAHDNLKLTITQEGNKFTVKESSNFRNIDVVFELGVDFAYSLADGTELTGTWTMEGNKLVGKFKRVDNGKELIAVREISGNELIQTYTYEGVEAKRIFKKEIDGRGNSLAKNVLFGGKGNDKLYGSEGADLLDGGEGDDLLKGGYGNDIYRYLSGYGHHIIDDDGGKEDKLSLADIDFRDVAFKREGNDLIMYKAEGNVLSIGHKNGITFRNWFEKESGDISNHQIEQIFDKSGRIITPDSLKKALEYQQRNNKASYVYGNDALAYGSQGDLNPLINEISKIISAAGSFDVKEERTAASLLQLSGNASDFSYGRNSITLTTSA

`CN(C)c1cccc2c(S(=O)(=O)NCCCCCCCCCCC(=O)O)cccc12` [DAUDA, 11-(((5-(dimethylamino)-1-naphthalenyl)sulfonyl)amino)-undecanoic acid]: the Kd by setting is: (refolded in the presence of Ca^2+, purified by SEC, read-out: KD for HlyA1-IFABP refolded in Ca^2+) 141 nM; (refolded/purified in the presence of EDTA, read-out: KD for HlyA1-IFABP refolded in EDTA) 264 nM.
